These results are taken from patent publication US12503448B2, “Antibacterial and antiparasitic quinoxaline-2,3-diamine derivatives” (University College Cardiff Consultants Limited, priority 2019, dated 2025).

In one data set the test system is S. mansoni schistosomula. Nature of the data set: 72 hours schistosomula drug screen. In kind it is cell-based, Schistosoma mansoni. As to conditions: for Selectivity Index Schistosomula: HepG2 CC50 over schistosomula EC50; for EC50: Schistosoma mansoni. In outline: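 Newly transformed S. mansoni schistosomula were screened for 72 h in 384-well format. Phenotype and motility were scored, and a schistosomula average was derived.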

The subject of the next data set is S. mansoni adult worms. Kind of data set: Adult worm drug screen (WHO scoring, WormassayGP2). Type of data set: cell-based, Schistosoma mansoni. The essentials:
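Adult worms perfused from MF-1 mice 7 weeks after infection with 180 cercariae. Motility after drug exposure scored on the WHO-TDR 0–4 microscopic scale (0 = no movement, 4 = normal), checked by image-based motion analysis. Deposited eggs counted.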

The nature of a further data set: MTT assay on HepG2 cells. In kind it is cell-based. As to conditions: human. The procedure: MTT Assay on HepG2 Cells Human Hepatocyte Carcinoma (HepG2) cells (85011430, Sigma Aldrich) were used to assess the overt toxicity of these anti-infective compounds. […] A negative control (1% v/v Triton X-100; X100, Sigma-Aldrich) was also included in each screen. After addition of compounds, each plate was then incubated for a further 20 hrs before application of MTT reagent (prepared as described in Nur-[…], Bari A, Ghabbour […], Hoffmann […] Nat Prod. 2017 Jun. 23; 80(6):1900-1908 for the assessment of compound cytotoxicity using the MTT assay. […] The plate was then further incubated for 4 hrs. After incubation, each plate was blotted dry under the laminar flow to remove the MTT treated culture media. A 100 μl DMSO: isopropanol (1:1) solution was then added to each well and the plate was then subsequently incubated for 10 minutes at 37° C. Following incubation, each plate was shaken again and then absorbance measured at 570 nm. The absorbance reading was corrected based on the average value of the wells used as blank (no cells). […] The data obtained in this manner is shown in Table 1 in the columns labelled “HepG2”. […] The selectivity indexes for schistosomula and adult worms are shown in the final two columns in Table 1.
(In general: Formazan colour is commonly taken as a measure of viable cells.)

Data set [1] deals with F. hepatica newly excysted juveniles (NEJs). Kind of data set: Newly excysted juveniles (NEJs) drug screen. Further details: scale not given here. As to conditions: 10 μM, 72 h; higher score indicates lower worm activity. In kind it is cell-based, Fasciola hepatica. In outline:
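Italian-strain F. hepatica NEJs, 25 per well, exposed to compound at 10 μM (0.1% DMSO) for 72 h at 37 °C, 5% CO2. Each parasite scored for phenotype and motility; averaged over two replicates, higher score meaning lower worm activity.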

A further data set relates to H3K4 methylation. Kind of data set: Histone extraction and detection of global H3K4 methylation in treated adult worms. In kind it is cell-based, Schistosoma mansoni. As to conditions: sub-lethal concentration 0.0024 μM, male and female adult worms.
Data set [2] in a line: Mouse pharmacokinetics, oral cassette dosing. As to conditions: for AUC(0-t) / Cmax / MRT last / Tmax: male, C57/BL6, mouse, plasma, po, 2.5 mg/kg; for Tlast: oral, nominal dose 2.5 mg/kg, cassette. The procedure:
Non-compartmental mouse pharmacokinetics (Male C57/BL6 Mouse, Fasted; 3 mice per group) were determined after oral administration of a nominal dose of 2.5 mg/kg of these formulations in cassettes (5 compounds/group) according to the protocols employed by WuXi (https://www.wuxiapptec.com; the CRO that conducted these studies).

Data set [3] is described as follows: Semi thermodynamic solubility. As to conditions: thermodynamic from solid.
Data set [4] is described as follows: Metabolic stability in mouse liver microsomes. As to conditions: liver microsomes. For orientation: Liver microsomes are a subcellular fraction often used to study metabolism.
The next data set has as its system Schistosoma mansoni. Kind of data set: Anti-schistosomal in vivo efficacy screen (murine model of schistosomiasis). As to conditions: 100 mg/kg oral, two doses (day 1 and day 3), mice.
Another data set can be described thus: in vitro. As to conditions: plasma.
[5] abbreviates: average of phenotype and motility, read-out: EC50 Schistosomula average.
Setting [6] is: schistosomula, 72 hour culture, read-out: EC50 Motility.
Where [7] appears, read: schistosomula, 72 hour culture, read-out: EC50 Phenotype.

Structures are written as SMILES. ≈ marks a conversion by molar mass, not a printed value. Read-outs that look alike come from different tables or passages of the source. A value given as a limit tells only on which side of the number the result lay.

Description for Schistosoma mansoni: Anti-Schistosomal in vivo Efficacy Screen
An anti-schistosomal efficacy trial of the compounds described herein was conducted on a murine model of Schistosomiasis using the following procedure. Schistosoma mansoni cercaria were prepared from infected Biomphalaria glabrata snails by inducing synchronous shedding upon exposure to light for 40 minutes (in artificial pond water). […] A maximum of 6 mice were housed in a cage for the duration of the 7-week infection.
At 6 wks post infection (Day 42 post infection), mice were dosed with anthelmintic chemicals using autoclaved gavage needles for oral delivery. The gavage needle was dipped into a concentrated solution of sucrose (approx. 1 g/ml) before dosing as a refinement measure to reduce stress-related reactions.
For oral dosing, the compounds (dry powder) were weighed and prepared in an appropriate excipient (e.g. 10% DMSO, 20% Kolliphor EL and 70% sterile water). […]
At the end of the treatment (on day 48 post-infection), mice were perfused after receiving an intra-peritoneal administration of non-recoverable dose of sodium pentobarbital (100 μl/10 g body weight) containing 100 U/ml heparin solution (in 1×PBS). […] After incubation in a humidified environment containing 5% CO2 at 37° C. for at least 1 h, the quantification of worm burden per each mouse of each treatment was performed. […]

By EC50 is commonly meant the concentration at which the effect is half-maximal. One may read the CC50 as the concentration at which the toxic effect on the cells reaches its halfway point. In general, AUC(0-t) refers to the area under the concentration-time curve up to a stated or last time point. Usually Cmax stands for the highest concentration seen after dosing. What is called MRT last is the average time that molecules of a dose stay in the body. Broadly, the Tmax is the time from dosing to the highest level. In general, thermodynamic solubility refers to solubility found after equilibrating the solid with the medium. Broadly, the half-life is the time needed for the level to fall by half in the phase considered. Broadly, the microsomal CLint is the rate of metabolic loss divided by the concentration. Regarding `O=[N+]([O-])c1ccc2nc(Nc3cc(C(F)(F)F)ccc3F)c(Nc3cc(C(F)(F)F)ccc3F)nc2c1` [Compound 9, N^2, N^3-bis(2-fluoro-5-(trifluoromethyl)phenyl)-6-nitroquinoxaline-2,3-diamine], the “Selectivity Index Schistosomula” value in the data set on S. mansoni schistosomula was found to be 223. The EC50 with S. mansoni schistosomula (setting [5]) was determined as 480 nM. Further, in the data set on S. mansoni schistosomula (setting [6]), the concentration for a half-maximal effect (EC50) worked out at 470 nM. The EC50 in the data set on S. mansoni schistosomula (setting [7]) turned out to be 480 nM. Moreover, in the data set on S. mansoni adult worms (HepG2 CC50 over adult worm EC50), the “Selectivity Index Adult” value is given as 29464. The EC50 in the data set with S. mansoni adult worms (Schistosoma mansoni, adult worms) was found to be 3.6 nM. The compound further came in with a CC50 at 24 h in “MTT assay on HepG2 cells” of 106000 nM. Besides, in data set [1], the “Motility (M) Mean score” value worked out at 3.68 and the “Phenotype (P) Mean score” value amounted to 4.63. In addition, in the data set on H3K4 methylation, the “global H3K4 methylation compared to the negative control (DMSO)” value was “significant % decrease”. In data set [2], the AUC(0-t) turned out to be 337 ng·h/mL, the highest level (Cmax) was 79.3 ng/mL, the MRT last is 4.22 h and the Tmax is 4 h. This compound gave a Tlast in [2] of 8.00 h. The solubility (thermodynamic) in data set [3] stood at 6.95 µM (≈ 3.68 µg/mL). In data set [4], the half-life at 1 μM came out at 1.45 h and the microsomal CLint at 1 μM was 16 µL/min/mg.
Regarding `O=[N+]([O-])c1ccc2nc(Nc3ccc(Cl)cc3)c(Nc3ccc(Cl)cc3)nc2c1` [Compound 4, N^2, N^3-bis(4-chlorophenyl)-6-nitroquinoxaline-2,3-diamine], in the data set on S. mansoni schistosomula, the “Selectivity Index Schistosomula” value came out at 28. Besides, in the data set on S. mansoni schistosomula (setting [5]), the EC50 was found to be 470 nM. Besides, the EC50 in the data set on S. mansoni schistosomula (setting [6]) came out at 530 nM. Moreover, in the data set with S. mansoni schistosomula (setting [7]), the EC50 was determined as 400 nM. In [1], the “Motility (M) Mean score” value came out at 4.71 and the “Phenotype (P) Mean score” value amounted to 5.13. In data set [2], the AUC(0-t) came to 436 ng·h/mL, the peak level (Cmax) was 90.4 ng/mL, the MRT last turned out to be 4.25 h and the Tmax was determined as 3.33 h. The compound further had a Tlast in data set [2] of 8.00 h. The “reduction in worm burden in vivo compared to the vehicle” value in the data set on Schistosoma mansoni is given as 35.5%. The “reduction in egg count in vivo compared to the vehicle” value with Schistosoma mansoni (liver eggs) stood at 39.9%. This compound yielded a solubility (thermodynamic) in data set [3] of 12.7 µM (≈ 5.41 µg/mL). In [4], this compound returned a half-life at 1 μM of 2.52 h and a microsomal CLint at 1 μM of 9.18 µL/min/mg.
The term fraction unbound denotes free concentration divided by total concentration. The compound `CC(=O)CC(c1ccccc1)c1c(O)c2ccccc2oc1=O` (stereo not drawn) [Warfarin, reference compound] had a fraction unbound in the data set “in vitro” of 0.0727. The compound further came in with a solubility (thermodynamic) in data set [3] of more than 100 µM.
